This series is described as follows: gradient 5% acetonitrile 3 min, to 50% in 2 min, to 85% in 15 min, held 3 min, 100 µL/min. The settings on record: column: Zorbax Extend-C18 2.1 x 50 mm; eluents: water / acetonitrile, 0.1% formic acid. The gist of the method:
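A Zorbax Extend-C18 column (2.1 × 50 mm, 1.8 μm) run at 100 μL/min with water and acetonitrile, both containing 0.1% formic acid, separated mixtures of ~100 pure standards. The HPLC was coupled to a quadrupole time-of-flight mass spectrometer operated in positive and negative ionization mode, with dead and dwell volumes of 40 μL and 900 μL. Each retention time was taken from a computationally picked adduct peak that was then manually inspected.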
In turn, `Cc1ccc(C)c(C(=O)N2CCC3(CC2)N=C(c2ccccc2)NO3)c1` gave an RP-LC retention time of 855 s.
For the molecule `CCN1CCn2cc(S(=O)(=O)Nc3ccc(C(=O)OC)cc3)cc2C1=O`, the RP-LC retention time is 692 s.
`CN(C)[C@@H]1CN(C(=O)COc2ccccc2)C[C@H]1CO` showed an RP-LC retention time of 546 s.
On to `Cc1cccc(NC(=O)Nc2c(-c3ccc(F)cc3)nc3ccccn23)c1C`, for which the RP-LC retention time was determined as 697 s.
Take `CC(C)n1c(N2CCN(C(=O)c3ccc(F)c(F)c3)CC2)cc(=O)n(C(C)C)c1=O`: the RP-LC retention time stood at 867 s.
As to `COCc1nc(NCc2ccc(OC)c(OC)c2)ncc1C(=O)O`, the RP-LC retention time was 644 s.
`Cc1cn(C)nc1C(=O)Nc1nnc(-c2ccco2)o1` returned an RP-LC retention time of 622 s.
In turn, `COc1cccc(-c2noc(-c3cc(N4CCN(c5ccccn5)CC4)nc4ccccc34)n2)c1OC` had an RP-LC retention time of 841 s.
For the molecule `O=C(c1ccsc1)N1CCCN(c2cc(-c3ccc4c(c3)OCO4)[nH]n2)CC1`, the RP-LC retention time worked out at 616 s.
The molecule `C/C=C1/C(=O)C[C@H]2[C@@H]3CCC4=CC(=O)CC[C@]4(C)[C@H]3CC[C@]12C` registered an RP-LC retention time of 1100 s.
The molecule `CCCn1cc(C(=O)NCCCN(C)C)c(S(=O)(=O)N2CCN(c3ccc(Cl)cc3)CC2)n1` yielded an RP-LC retention time of 757 s.
The result for `CC(C)c1nc(N2CCN(c3ccccc3)CC2)ncc1C(=O)O` reads 868 s; that for `COc1ccc(-c2nnc(-c3ccccc3Cl)o2)cc1S(=O)(=O)N1CCCCCC1`, 1100 s; that for `CCn1ccc2cc(S(=O)(=O)N3CCCN(C(=O)NC4CCCCC4)CC3)ccc21`, 936 s.
`CCCS(=O)(=O)N1CC(=O)N(c2cccc(F)c2)C(C)(C(=O)NC2CCCCCC2)C1` (stereo unspecified) displayed an RP-LC retention time of 956 s.
Molecule `CS(=O)(=O)N1CCOc2ccc(CCC(=O)NCC3CCCO3)cc2C1` (stereo unspecified) had an RP-LC retention time of 666 s.
As to `O=C(Cn1cnc2ccccc2c1=O)N1CCC(c2nnc(-c3ccco3)o2)CC1`, the RP-LC retention time was 621 s.
Regarding `O=C(Nc1ccc(-c2cn3cccnc3n2)cc1)c1cccc(Br)c1`, the RP-LC retention time is 702 s.
The figure for `Cc1ccc(CNC(=O)c2cccc(C3CCCN(C(=O)NC(C)C)C3)c2)o1` (stereo unspecified) is 833 s.
`Cc1ccccc1S(=O)(=O)N1CCC(n2cnnc2-c2ccccc2)CC1`: the RP-LC retention time was 773 s.
The result for `CCN1C(=O)C(C)(C(=O)Nc2ccc(F)c(Cl)c2)Oc2cccnc21` (stereo unspecified) reads 988 s; that for `O=C(c1cc(-c2ccco2)[nH]n1)N1CCN(c2ncccn2)CC1`, 640 s.
`Cc1nnc2ccc(S(=O)(=O)Nc3ccc4c(c3)OCO4)cn12` gave an RP-LC retention time of 669 s.
For the molecule `O=C(Nc1cccc(-c2cn3cccnc3n2)c1)c1ccc(Br)cc1`, the RP-LC retention time was 734 s.
The figure for `CCOCC(=O)N1CCCn2ccnc2C1C1CCCC1` (stereo unspecified) is 587 s; for `Cn1c(=O)n(C)c2cc(S(=O)(=O)C3CCCCC3)c(NC(=O)c3ccccc3F)cc21` it is 940 s.
In turn, `CC(C)NC(=O)C1CC(=O)N(C2CCCCC2)C1` (stereo unspecified) yielded an RP-LC retention time of 657 s.
As to `Cc1ccc(Cl)cc1N(C)C(=O)Cn1cnc2nc3c(cc2c1=O)CCCC3`, the RP-LC retention time came to 809 s.
The figure for `COc1cccc(-n2c(N3CCCC(C(=O)NCCC(C)C)C3)nc3ccsc3c2=O)c1` (stereo unspecified) is 872 s; for `O=C(O)c1cccn2c(=O)c3cc(Cl)ccc3nc12` it is 782 s; for `Cc1noc(-c2cccc(OC3CN(C(=O)Cc4ccccc4)C3)c2)n1` it is 854 s.
`Cn1c(=O)sc2cc(S(=O)(=O)N3CCC(C(=O)Nc4ccccn4)CC3)ccc21`: the RP-LC retention time came to 684 s.
Molecule `CC(C)n1cc(C2=CCN(S(=O)(=O)c3cccc4cccnc34)CC2)c2cccnc21` came in with an RP-LC retention time of 993 s.
`Cc1nc(C)c(C(=O)N2CCCC2c2nc(CCOCC3CCCC3)no2)s1` (stereo unspecified) returned an RP-LC retention time of 905 s.
In the case of `COc1ccc(NC(=O)N2CCC3(CC2)NC(=O)c2ccccc2N3C)c(OC)c1`, the RP-LC retention time was determined as 649 s.
With `Cc1cccc(NC(=O)c2cn3c(n2)CCCC3)c1C`, the RP-LC retention time is 603 s.
For the molecule `CCOC(=O)Cc1csc(NC(=O)Cn2nc3c(cc2=O)CCCCC3)n1`, the RP-LC retention time worked out at 769 s.
`Cc1cccc(NC(=O)C2CC(=O)N(c3n[nH]c4cccc(F)c34)C2)c1C` (stereo unspecified): the RP-LC retention time amounted to 770 s.
`O=C(C1CCC1)N1CCCC(CN2CCOCC2)CC1` (stereo unspecified) came in with an RP-LC retention time of 574 s.
`COc1ccc(NC(=O)C(=O)c2cccn2C)c(OC)c1` had an RP-LC retention time of 976 s.
For `CCCNc1cc(N2CCC(CCC(=O)Nc3ccc(OC)cc3OC)CC2)ncn1`, the RP-LC retention time worked out at 648 s.
`O=c1c2ccccc2c(-c2nc(-c3cccnc3)no2)cn1-c1ccc(Cl)cc1`: the RP-LC retention time was 1120 s.
The molecule `O=C(CCc1c(-c2ccccc2)nc2ccccn12)NC1CC1` had an RP-LC retention time of 561 s.
With `O=C(Cc1cccc(F)c1)N1CCCC1c1nc(-c2ccc(F)cc2)no1` (stereo unspecified), the RP-LC retention time worked out at 1010 s.
The figure for `Cc1c(C(=O)NCC(C)C)c(C)n2cnn(CC(=O)NCCc3ccccc3)c(=O)c12` is 743 s.
With `COc1ccc2c(c1)-c1nc(NC(=O)c3ccccc3Br)sc1CC2`, the RP-LC retention time came to 1140 s.
`CC(NC(=O)c1ccsc1)C(=O)Nc1nc2ccccc2[nH]1` (stereo unspecified) gave an RP-LC retention time of 609 s.
Molecule `CCOc1ccc(CN2C[C@@H]3C(=O)N(Cc4ccc5c(c4)OCO5)C(=O)[C@@H]3C2)cc1` returned an RP-LC retention time of 658 s.
Take `COc1cccc(N2C(=O)C3N=NN(c4ccc(C)c(F)c4)C3C2=O)c1` (stereo unspecified): the RP-LC retention time turned out to be 1110 s.
Regarding `CC(C)CN1CCN(C(=O)c2cnc(-c3ccccc3)nc2-c2ccncc2)CC1`, the RP-LC retention time worked out at 646 s.
With `CCc1ccc(NS(=O)(=O)c2ccc3c(c2)CCCC(=O)N3)cc1`, the RP-LC retention time came out at 794 s.
`Cc1c(S(=O)(=O)N2CCOCC2)cc(C(=O)N2CCCC2)n1C` displayed an RP-LC retention time of 658 s.
The molecule `O=C(CNC(=O)Cc1ccccc1)NCC(=O)N1CCCc2ccccc21` returned an RP-LC retention time of 710 s.
Consider `Cc1nnc(C2CCCCCN2C(=O)c2cnco2)o1` (stereo unspecified), for which the RP-LC retention time is 618 s.
As for `CC(=O)N1CCc2nn(CC(=O)Nc3ccccc3Cl)c(=O)cc2C1`, the RP-LC retention time was 606 s.
Molecule `O=c1c2cc(-c3ccccc3Cl)nn2cnn1Cc1nc(-c2ccc(F)cc2)no1` returned an RP-LC retention time of 1140 s.
On to `Cc1cc(C)cc(NC(=O)C2CCCN(c3nc4ccsc4c(=O)n3Cc3ccc(F)cc3)C2)c1` (stereo unspecified), for which the RP-LC retention time came out at 1090 s.
The result for `CCc1ccc(S(=O)(=O)NCCc2sc(C)nc2C)s1` reads 647 s; that for `COc1ccc(NC(=O)Nc2ccc3nc(C)n(-c4ccccc4)c(=O)c3c2)cc1OC`, 679 s.
The result for `COc1cc(NC(=O)N2CCN(Cc3ccccc3)c3ncccc32)cc(OC)c1OC` reads 665 s; that for `COc1cccc(-c2ccc3nc(N4CCC(C(=O)NCCN(C)C)CC4)sc3n2)c1`, 669 s.
The molecule `CCN(CC)CCNC(=O)c1ccc(-c2ccccc2)cc1` yielded an RP-LC retention time of 587 s.
In the case of `O=C(NCCOc1ccc2c(c1)OCO2)C1CCCC1`, the RP-LC retention time worked out at 741 s.
Take `Cc1ccn2cc(-c3ccc(NS(=O)(=O)c4ccccc4Cl)cc3)nc2n1`: the RP-LC retention time is 642 s.
Consider `CCCN(C)C(=O)c1ccc(-n2cc(CNC(=O)C3CCC3)cn2)cc1`, for which the RP-LC retention time worked out at 695 s.
As to `CCCCc1ccc(NC(=O)Cn2cnc3c(sc4nc(-c5ccccc5)ccc43)c2=O)cc1`, the RP-LC retention time turned out to be 1260 s.
With `O=C(NCc1ccncc1)C1CCCN(c2nc3ccsc3c(=O)n2Cc2ccc(F)cc2)C1` (stereo unspecified), the RP-LC retention time came out at 630 s.
`O=C(NCc1ccccc1)C1CCCCN1S(=O)(=O)c1ccc(F)cc1` (stereo unspecified) gave an RP-LC retention time of 940 s.
`Cc1csc(C(=O)NCC2CCN(C(=O)COc3ccccc3)CC2)c1` yielded an RP-LC retention time of 734 s.
The figure for `COc1ccc(-c2noc(C3CCCN3C(=O)c3cc(F)cc(F)c3)n2)cc1` (stereo unspecified) is 1020 s.
The result for `Cc1cc(-c2nnc(C3CCC3)o2)c(C)n1CC(=O)Nc1ccc2c(c1)OCCO2` reads 836 s; that for `O=C(NCCc1ccccn1)c1cccc(N2CCNC(c3ccccc3)C2)n1` (stereo unspecified), 554 s.
In turn, `O=[N+]([O-])c1cnc(Sc2ccncn2)s1` yielded an RP-LC retention time of 843 s.
For `COc1cccc(-n2c(=O)c(C(=O)NC(C)c3ccccc3)c(O)c3cccnc32)c1` (stereo unspecified), the RP-LC retention time was 1180 s.
`COC(=O)CCc1c(C)nc2c(c(-c3cccs3)nn2C2CCS(=O)(=O)C2)c1C` (stereo unspecified) had an RP-LC retention time of 850 s.
On to `CCOc1ccc(C(=O)N2CCC3(C2)C(=O)Nc2ccccc23)cc1` (stereo unspecified), for which the RP-LC retention time was determined as 725 s.
The result for `COC(=O)N1CCc2ccccc2C1C(=O)NCc1ccco1` (stereo unspecified) reads 715 s; that for `Cc1ccc(S(=O)(=O)N2CCC(CN3CCCCCC3)CC2)cc1F`, 686 s; that for `Cc1nc(-c2ccc3c(c2)CCN3C(=O)C2COc3ccccc3O2)cs1` (stereo unspecified), 1020 s.
With `Cc1ccc(NC(=O)NCC2CCOCC2)cc1C`, the RP-LC retention time is 726 s.
On to `COc1ccc(-c2nc3cnccn3c2Nc2ccc(F)cc2)cc1OC`, for which the RP-LC retention time was 768 s.

The record behind these values is the METLIN SMRT retention time set (Domingo-Almenara et al. 2019).
